Laboratory results from US20240310361A1, “METHOD OF […] RESPONSE OF CELL GROUP TO TEST SUBSTANCE” (CANON KABUSHIKI KAISHA, priority 2023, published 2024).

Test system: PBMCs
Test: Calcium-derived fluorescence check of immobilized Fluo-4-stained PBMCs with a calcium ionophore
Assay type: cell-based
Conditions: final concentration 1 μg/mL; PBMCs immobilized on BAM-modified glass bottom dish; FIG. 8/9
Protocol: It is found from FIG. 7 that the PBMCs can be immobilized under a dense state at positions subjected to the BAM modification. […] It was able to be recognized that the cells were immobilized so as to satisfy the condition. In addition, to recognize whether or not fluorescence derived from calcium was able to be observed with the immobilized cells, a calcium ionophore (A23187) was added at a final concentration of 1 μg/mL. […] FIG. 8 is a fluorescence image before the addition of the calcium ionophore, and FIG. 9 is a fluorescence image after the addition.
In this Example, the fluorescence images were acquired with an inverted microscope (TE200-U, manufactured by Nikon Corporation), a CCD camera (EM-CCD DIGITAL CAMERA/C9100-13, manufactured by Hamamatsu Photonics K.K.), and a filter set (excitation: from 450 nm to 490 nm, DM: 505 nm, fluorescence: 520 nm).
Floating PBMCs were recovered from the PBMCs cultured overnight, and 7 mL of PBS was added thereto, followed by centrifugation at 300 G for 8 minutes. The supernatant was removed, and the residue was suspended in 10 mL of PBS, followed by the counting of a cell number. […]

## CNc1ccc2oc(C[C@H]3O[C@@]4(CC[C@H]3C)O[C@H]([C@H](C)C(=O)c3ccc[nH]3)[C@H](C)C[C@H]4C)nc2c1C(=O)O [A23187]
  fluorescence derived from calcium in immobilized cells: fluorescence was able to be observed in each of substantially all the immobilized PBMCs
